The record followed here is patent publication US9040523B2, “Antifungal 5,6-dihydro-4H-pyrrolo[1,2-α][1,4]-benzodiazepines and 6H-pyrrolo[1,2-α][1,4]benzodiazepines substituted with benzene derivatives” (JANSSEN PHARMACEUTICA NV, priority 2010, dated 2015).

The nature of series [1]: Liver metabolic stability assay, hLM. It is filed as in vitro ADME, human. The note with it: human liver microsomes, 1 mg protein/ml, 5 μM test compound, 15 min, 37 °C. In general terms: Liver microsomes are a subcellular fraction often used to study metabolism.
Series [2] deals with Trichophyton rubrum B68183. The series is described as follows: Antifungal activity in vitro (resazurin susceptibility screen), Inf. C. The note with it: Trichophyton rubrum B68183; 27 °C, 7 days, resa time 24 hours; read-out: Inf. C pIC50 (converted). Type of series: cell-based. The procedure, abridged:
(§1)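 This resazurin susceptibility screen used wells inoculated with 10^3 cfu per 200 μl in RPMI-MOPS, dispensed onto test plates holding spotted compound dilutions. Growth was normalised between fungus without antifungal (100%) and medium alone (0%).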
On the technique in general: Alamar Blue is a resazurin reagent that responds to reducing activity.

The subject of series [3] is Trichophyton mentagrophytes B70554. Description: Antifungal activity in vitro (resazurin susceptibility screen), Inf. G. Type of series: cell-based. Particulars: Trichophyton mentagrophytes, B70554, Trichophyton mentagrophytes B70554; 27 °C, 7 days, resa time 24 hours; read-out: Inf. G pIC50 (converted). In outline: (§2)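 Each well was inoculated with 10^3 cfu of fungus onto dried, pre-spotted compound serial dilutions in RPMI-MOPS medium, with fungal growth read by resazurin. Growth was referenced to drug-free culture (100%) and medium-only (0%) controls on each plate.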

The target in series [4] is CYP3A4 (Homo sapiens, UniProt P08684). Description: Cytochrome P450 inhibition, Protocol A, cDNA expressed proteins, fluorogenic substrates. Type of series: in vitro ADME. Particulars: % inhibition at 10 μM, cDNA expressed protein; for hCYP3A4_BFC_Pct_Inh: substrate BFC; for hCYP3A4_BQ_Pct_Inh: substrate BQ; for hCYP3A4_DBF_Pct_Inh: substrate DBF. In outline:
(§3)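 cDNA-expressed enzymes with fluorogenic substrates (three separate ones for CYP3A4) in sodium/potassium buffer pH 7.4 plus NADPH-generating system. Compounds at 1 nM to 10 μM final, prewarmed 5 min at 37° C, reaction started with NADP+, stopped, then fluorescence measured.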

Series [5] concerns the target CYP2D6 (Homo sapiens, UniProt P10635). The series is described as follows: Cytochrome P450 inhibition, Protocol A, cDNA expressed proteins, fluorogenic substrate. Type of series: in vitro ADME. Particulars: % inhibition at 10 μM; substrate AMMC; cDNA expressed protein. In outline: as §3
Series [6] has as its target CYP2C9 (Homo sapiens, UniProt P11712). The series is described as above. Type of series: in vitro ADME. The note with it: % inhibition at 10 μM; substrate MFC; cDNA expressed protein. The procedure, abridged:
as §3

Series [7] deals with Candida parapsilosis B66126. The series is described as follows: Antifungal activity in vitro (resazurin susceptibility screen), Inf. D. Type of series: cell-based. The note with it: Lodderomyces parapsilosis; Candida parapsilosis B66126; 37 °C, 24 hours, resa time 4 hours; read-out: Inf. D pIC50 (converted). In outline: as §2
Series [8] is described as follows: Liver metabolic stability assay, gpLM. The note with it: guinea pig microsomes, 1 mg protein/ml, 5 μM test compound, 15 min, 37 °C. Type of series: in vitro ADME, guinea pig.
Series [9] concerns Sporothrix schenkii B62482. The series is described as follows: Antifungal activity in vitro (resazurin susceptibility screen), Inf. A. It is filed as cell-based. The note with it: Sporothrix, B62482, Sporothrix schenkii B62482; 27 °C, 4 days, resa time 24 hours; highest in-test concentration 64 μM; read-out: Inf. A pIC50 (converted). In outline: as §1
Series [10] concerns Scedosporium apiospermum IHEM3817. Description: Antifungal activity in vitro (resazurin susceptibility screen), Inf. H. Type of series: cell-based. The note with it: 37 °C, 48 hours, resa time 17 hours, read-out: Inf. H pIC50 (converted). The procedure, abridged:
as §1

For series [11], the system named is Rhizomucor miehei IHEM13391. Description: Antifungal activity in vitro (resazurin susceptibility screen), Inf. K. Type of series: cell-based. The note with it: 37 °C, 48 hours, resa time 17 hours, read-out: Inf. K pIC50 (converted). In outline:
as §1

In series [12] the test system is Aspergillus fumigatus B42928. Description: Antifungal activity in vitro (resazurin susceptibility screen), Inf. E. The note with it: Aspergillus fumigatus B42928; 27 °C, 48 hours, resa time 17 hours; read-out: Inf. E pIC50 (converted). It is filed as cell-based. In outline: as §1
The subject of series [13] is Rhizopus oryzae IHEM5223. The series is described as follows: Antifungal activity in vitro (resazurin susceptibility screen), Inf. J. It is filed as cell-based. The note with it: Rhizopus arrhizus, 37 °C, 24 hours, resa time 6 hours, read-out: Inf. J pIC50 (converted). In outline: as §1
Series [14] relates to Cryptococcus neoformans B66663. The series is described as follows: Antifungal activity in vitro (resazurin susceptibility screen), Inf. F. It is filed as cell-based. The note with it: Cryptococcus neoformans, B66663, Cryptococcus neoformans B66663; 37 °C, 24 hours, resa time 4 hours; read-out: Inf. F pIC50 (converted). The procedure, abridged:
as §1

Sequence of CYP2D6 (P10635 whole entry): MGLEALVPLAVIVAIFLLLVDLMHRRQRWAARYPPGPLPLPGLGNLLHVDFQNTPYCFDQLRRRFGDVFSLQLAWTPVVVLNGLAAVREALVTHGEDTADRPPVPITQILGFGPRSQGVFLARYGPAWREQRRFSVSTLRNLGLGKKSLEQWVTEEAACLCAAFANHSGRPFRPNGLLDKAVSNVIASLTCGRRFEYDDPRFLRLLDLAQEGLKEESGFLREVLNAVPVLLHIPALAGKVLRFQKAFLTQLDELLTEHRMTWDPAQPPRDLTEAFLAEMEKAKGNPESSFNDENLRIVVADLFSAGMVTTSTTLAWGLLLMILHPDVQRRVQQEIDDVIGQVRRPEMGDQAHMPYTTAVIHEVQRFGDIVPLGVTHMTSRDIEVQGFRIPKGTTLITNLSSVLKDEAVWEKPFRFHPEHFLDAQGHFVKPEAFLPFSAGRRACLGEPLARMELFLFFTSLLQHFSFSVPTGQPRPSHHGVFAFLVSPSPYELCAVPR
Sequence of CYP3A4 (P08684 whole entry): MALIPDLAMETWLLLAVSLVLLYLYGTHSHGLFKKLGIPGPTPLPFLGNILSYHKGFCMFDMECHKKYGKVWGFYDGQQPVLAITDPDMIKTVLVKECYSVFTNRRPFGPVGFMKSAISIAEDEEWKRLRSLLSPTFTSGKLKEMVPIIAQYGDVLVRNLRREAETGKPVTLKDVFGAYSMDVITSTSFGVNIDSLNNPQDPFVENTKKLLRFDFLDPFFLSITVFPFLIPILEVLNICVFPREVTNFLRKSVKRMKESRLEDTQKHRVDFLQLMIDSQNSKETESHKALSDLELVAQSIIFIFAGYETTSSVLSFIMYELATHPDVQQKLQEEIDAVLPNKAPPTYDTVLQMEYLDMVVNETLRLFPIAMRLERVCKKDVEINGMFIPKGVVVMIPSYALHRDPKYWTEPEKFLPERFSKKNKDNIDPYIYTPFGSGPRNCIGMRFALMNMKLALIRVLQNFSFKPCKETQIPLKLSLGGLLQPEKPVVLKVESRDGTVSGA
Sequence of CYP2C9 (P11712 whole entry): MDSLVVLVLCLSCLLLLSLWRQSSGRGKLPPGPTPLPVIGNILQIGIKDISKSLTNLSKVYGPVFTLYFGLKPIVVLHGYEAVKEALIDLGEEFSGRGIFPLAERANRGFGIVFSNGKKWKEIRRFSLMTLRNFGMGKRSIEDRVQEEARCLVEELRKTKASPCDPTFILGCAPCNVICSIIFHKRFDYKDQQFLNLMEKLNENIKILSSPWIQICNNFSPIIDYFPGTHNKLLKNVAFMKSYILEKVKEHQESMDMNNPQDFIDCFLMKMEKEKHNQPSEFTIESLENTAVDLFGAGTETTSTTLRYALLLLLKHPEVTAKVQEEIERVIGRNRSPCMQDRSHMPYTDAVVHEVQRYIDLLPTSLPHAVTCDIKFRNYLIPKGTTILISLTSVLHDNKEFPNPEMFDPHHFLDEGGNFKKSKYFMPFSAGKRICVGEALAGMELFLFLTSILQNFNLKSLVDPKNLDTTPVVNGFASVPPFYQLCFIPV

Regarding `CC(=O)c1ccc(C2=NCc3cccc(Cl)c3-n3cccc32)cc1` [Compound 15, 1-[4-(10-chloro-6H-pyrrolo[1,2-a][1,4]benzodiazepin-4-yl)phenyl]-ethanone], in series [1], the “%-compound metabolised_Met_hLM” value amounted to 17%. The IC50 is 0.126 µM in series [2]; 0.398 µM in series [3]; greater than 63.1 µM in series [7]; 1.58 µM in [9]; 10 µM in series [10]; 7.94 µM in series [11]. In addition, the IC50 is 0.501 µM in series [12], greater than 63.1 µM in series [13] and 2 µM in series [14]. In addition, the hCYP3A4_BFC_Pct_Inh in series [4] is 1%. For the same compound, the hCYP3A4_BQ_Pct_Inh in series [4] is recorded as 40%. Further, the hCYP3A4_DBF_Pct_Inh in [4] is on record as 16%. The hCYP2D6_AMMC_Pct_Inh in series [5] was found to be 63%. In series [6], this compound had a hCYP2C9_MFC_Pct_Inh of 60%. Also, the “%-compound metabolised Met_gpLM” value in [8] came to 44%.

Turning to `CC(=O)c1cccc(C2=NCc3c(Cl)cccc3-n3cccc32)c1` [Compound 16, 1-[3-(7-chloro-6H-pyrrolo[1,2-a][1,4]benzodiazepin-4-yl)phenyl]-ethanone], in series [1], the “%-compound metabolised_Met_hLM” value is recorded as 87%. Further, the IC50 in series [2] was 0.0501 µM; in [3], 0.398 µM; in series [7], greater than 63.1 µM; in [9] it was 25.1 µM; in series [10], greater than 63.1 µM; in series [11] it was greater than 63.1 µM. The IC50 in [12] is 0.631 µM; in series [13], greater than 63.1 µM; in [14], greater than 63.1 µM. In series [4], this compound returned a hCYP3A4_BFC_Pct_Inh of 29%. The compound also had a hCYP3A4_BQ_Pct_Inh in series [4] of 46%. In series [4], this compound gave a hCYP3A4_DBF_Pct_Inh of 64%. In [5], this compound showed a hCYP2D6_AMMC_Pct_Inh of 55%. Besides, in [6], the hCYP2C9_MFC_Pct_Inh stood at 84%. In [8], the “%-compound metabolised Met_gpLM” value is 100%.

With `CC(=O)c1cc(C2=NCc3c(Cl)cccc3-n3cccc32)ccc1F` [Compound 19, 1-[5-(7-chloro-6H-pyrrolo[1,2-a][1,4]benzodiazepin-4-yl)-2-fluorophenyl]-ethanone], in [1], the “%-compound metabolised_Met_hLM” value is listed as 36%. Also, the IC50 is 0.2 µM in [2]; 0.794 µM in series [3]; greater than 63.1 µM in series [7]; greater than 63.1 µM in [9]; greater than 63.1 µM in [10]; greater than 63.1 µM in series [11]. The IC50 was 2 µM in [12], greater than 63.1 µM in series [13] and greater than 63.1 µM in series [14]. In addition, in [4], the hCYP3A4_BFC_Pct_Inh came out at 26%. In addition, in series [4], the hCYP3A4_BQ_Pct_Inh is on record as 49%. In series [4], the hCYP3A4_DBF_Pct_Inh amounted to 49%. In [5], this compound yielded a hCYP2D6_AMMC_Pct_Inh of 33%. In series [6], the hCYP2C9_MFC_Pct_Inh worked out at 60%. Besides, the “%-compound metabolised Met_gpLM” value in series [8] is 80%.

On to `CC(=O)c1ccc(C2=NCc3c(F)cccc3-n3cccc32)cc1` [Compound 20, 1-[4-(7-fluoro-6H-pyrrolo[1,2-a][1,4]benzodiazepin-4-yl)phenyl]-ethanone], for which the “%-compound metabolised_Met_hLM” value in series [1] was found to be 26%. Besides, the IC50 was 0.1 µM in [2]; 0.398 µM in series [3]; greater than 63.1 µM in [7]; greater than 63.1 µM in [9]; greater than 63.1 µM in series [10]; greater than 63.1 µM in [11]. Also, the IC50 is 0.501 µM in series [12], greater than 63.1 µM in series [13] and greater than 63.1 µM in series [14]. The same compound registered a hCYP3A4_BFC_Pct_Inh in series [4] of 1%. This compound also registered a hCYP3A4_BQ_Pct_Inh in series [4] of 25%. Further, in series [4], the hCYP3A4_DBF_Pct_Inh was 5%. For the same compound, in series [5], the hCYP2D6_AMMC_Pct_Inh was found to be 20%. In addition, the hCYP2C9_MFC_Pct_Inh in [6] was 43%. The “%-compound metabolised Met_gpLM” value in [8] is listed as 88%.

In the case of `CC(=O)c1ccc(C2=NCc3c(Cl)cc(Cl)cc3-n3cccc32)cc1` [Compound 22, 1-[4-(7,9-dichloro-6H-pyrrolo[1,2-a][1,4]benzodiazepin-4-yl)phenyl]-ethanone], in series [1], the “%-compound metabolised_Met_hLM” value was 27%. Moreover, the IC50 in series [2] is 0.0501 µM; in series [3] it was 0.316 µM; in series [7], 25.1 µM; in series [9] it was 3.98 µM; in [10], 50.1 µM; in series [11], greater than 63.1 µM. Also, the IC50 is 0.251 µM in series [12], greater than 63.1 µM in series [13] and 10 µM in series [14]. Besides, the hCYP3A4_BFC_Pct_Inh in series [4] stood at 39%. In addition, in series [4], the hCYP3A4_BQ_Pct_Inh amounted to 63%. The compound also returned a hCYP3A4_DBF_Pct_Inh in series [4] of 89%. This compound came in with a hCYP2D6_AMMC_Pct_Inh in series [5] of 53%. Moreover, the hCYP2C9_MFC_Pct_Inh in series [6] is reported as 85%. Besides, the “%-compound metabolised Met_gpLM” value in series [8] is reported as 73%.

On to `CC(=O)c1ccc(C2=NCc3c(F)cc(F)cc3-n3cccc32)cc1` [Compound 24, 1-[4-(7,9-difluoro-6H-pyrrolo[1,2-a][1,4]benzodiazepin-4-yl)phenyl]-ethanone], for which the “%-compound metabolised_Met_hLM” value in series [1] is recorded as 20%. In addition, the IC50 in [2] is 0.126 µM; in [3], 0.631 µM; in [7], 3.98 µM; in [9], 20 µM; in [10] it was 7.94 µM; in [11], greater than 63.1 µM. The IC50 in [12] was 0.794 µM; in [13], greater than 63.1 µM; in series [14], 10 µM. The same compound gave a hCYP3A4_BFC_Pct_Inh in series [4] of 3%. In [4], the hCYP3A4_BQ_Pct_Inh was 39%. The compound also came in with a hCYP3A4_DBF_Pct_Inh in series [4] of 3%. In series [5], this compound yielded a hCYP2D6_AMMC_Pct_Inh of 3%. The compound also came in with a hCYP2C9_MFC_Pct_Inh in series [6] of 54%. In addition, the “%-compound metabolised Met_gpLM” value in series [8] is 53%.
